# Measurements: patent US20110269790A1, “NOVEL THIENOPYRIDINES AS PHARMACOLOGICALLY ACTIVE AGENTS” (priority 2009, published 2011)
# What was measured:
# [1] = test system: mice; test: Adenosine mediated bronchoconstriction and lung inflammation in an allergic mouse model; type: in vivo; parameters: Total count: unit not given here; conditions: BAL fluid cells; 100 mg/kg oral
# Procedure, shortened: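 Male mice sensitized i.p. with ragweed (days 1, 6), challenged with 0.5% ragweed aerosol twice daily for 3 days; 24 h later dosed orally (acacia suspension; theophylline 100 mg/kg), then challenged with adenosine (24 mg/ml) 2 h post-dose. Respiration recorded by kymograph under pentobarbitone; BAL total and differential cell counts.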
# [2] = biological target: T1, yeast α-glucosidase (Saccharomyces cerevisiae, UniProt P53341); test: In-vitro yeast α-glucosidase inhibition assay; type: biochemical, bakers yeast
# T1 construct: α-Glucosidase [(EC 3.2.1.20) Type I: from bakers yeast]
# Excerpt: (§1) Chemicals: α-Glucosidase [(EC 3.2.1.20) Type I: from bakers yeast], rat intestinal acetone powder (as a source of crude intestinal α-glucosidase), α-amylase [EC 3.2.1.1) Type VI B: from porcine pancreas], p-nitrophenyl α-D-glucopyranoside, 3,5-dinitro salicylic acid, soluble potato starch and 1-deoxyrojirimycine, were purchased from Sigma Chemical Co., St Louis, Mo., USA. Other chemicals of analytical grade were procured from indigenous manufacturers.
# In-vitro a-Glucosidase Inhibition Assay: Yeast and intestinal a-glucosidase inhibitory activities were determined as per reported methods (Babu et al., 2004; Mc Dougall et al., 2005). Rat intestinal acetone powder in normal saline (100% w/v) was sonicated properly and the supernatant was used as a source of crude intestinal a-glucosidase after centrifugation. In brief, 20 μl, of test samples (100 mg/ml DMSO solution) were reconstituted in 100 μl of 100 mM-Phosphate buffer (pH 6.8) in a 96-well microplate and incubated with 50 μl yeast a-glucosidase (0.76 μ/ml in same buffer) or crude intestinal a-glucosidase for 5 min before 50-μl substrate (5 mM, […] prepared in same buffer) was added. Release of p-nitrophenyol was measured at 405 nm spectrophotometrically (Spectra Mas Plus 384, Molecular Device corporation, Sunnyvale, Calif., USA) 5 min after incubation with substrate, individual blank for test samples were prepared to correct background absorbance where the substrate was replaced with 50 μl of buffer. The control sample contained 20 μl DMSO in place of test samples. The percentage of enzyme inhibition was calculated as (A−B/A)×100 where A is represents the absorbance of the control without test samples, and B represents the absorbance in the presence of test samples. […] The IC50 values were calculated by applying logarithmic regression analysis from the mean inhibitory values.
# [3] = biological target: T2, porcine pancreatic α-amylase (Sus scrofa, UniProt P00690); test: α-Amylase inhibition assay; type: biochemical; conditions: 10 mg per ml; for Maltose released: a/b marks the respective control (Control-1 2.147, Control-2 3.429); for inhibition at 10000 µg/mL (stock): 0.05 h, calculated from maltose released vs respective control
# T2 construct: α-amylase [EC 3.2.1.1) Type VI B: from porcine pancreas]; purchased Sigma Chemical Co., St Louis, Mo., USA; host or cells: porcine pancreas (natural source)
# T2 sequence (P00690 16-511): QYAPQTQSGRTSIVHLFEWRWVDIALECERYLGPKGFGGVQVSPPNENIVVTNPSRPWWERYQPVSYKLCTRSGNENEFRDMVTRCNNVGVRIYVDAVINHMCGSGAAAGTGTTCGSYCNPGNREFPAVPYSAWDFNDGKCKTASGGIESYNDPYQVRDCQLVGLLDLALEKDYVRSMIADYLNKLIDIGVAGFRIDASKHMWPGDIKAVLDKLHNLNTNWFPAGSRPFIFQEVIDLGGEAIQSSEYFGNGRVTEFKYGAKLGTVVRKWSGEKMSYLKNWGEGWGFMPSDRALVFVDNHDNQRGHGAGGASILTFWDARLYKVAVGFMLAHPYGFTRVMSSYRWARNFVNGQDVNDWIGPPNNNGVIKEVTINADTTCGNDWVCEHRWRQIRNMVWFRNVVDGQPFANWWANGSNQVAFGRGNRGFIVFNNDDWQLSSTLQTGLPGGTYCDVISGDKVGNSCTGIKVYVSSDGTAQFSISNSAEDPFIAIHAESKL
# Excerpt: as §1
# a-Amylase Inhibition Assay: The assay method was adopted from Ali et al. (2006) and modified accordingly to suite microplate reading. In brief, 40 μL of test samples (10 mg/mL DMSO) were reconstituted in 160 μL of 20 mM phosphate buffer (pH 6.9) containing 6.7 mM sodium chloride in 2 mL Eppendorf tubes and incubated with 200 μL of porcine pancreatic α-amylase) (4 U/mL prepared in ice cold distilled water) for 5 min. The reaction was started by the addition of 400-μL soluble potato starch solution (0.5% w/v in 20 mM phosphate buffer, pH 6.9). Exactly 3 min after incubation, 400 μL DNS color reagent (1.0 g of 3,5-dinitrosalicylic acid, 30 g of sodium potassium tartrate and 20 mL of 2 N NaOH to a final volume of 100 mL in distilled water) was added. Closed tubes were placed in a water bath (85-90° C.) for 10 min to develop color and cooled thereafter. 50 μL of reaction mixtures was diluted with 175 μL of distilled water in a 96-well microplate. α-Amylase activity was determined by measuring the absorbance of the mixture at 540 nm spectrophotometrically as above. Individual blanks were prepared to correct for the background absorbance due to test samples. In this case DNS solution was added in tubes before addition of substrate. The percentage inhibition of enzyme activity was calculated as above. All the tests were run in duplicate in this assay.
# T1 sequence (P53341 whole entry): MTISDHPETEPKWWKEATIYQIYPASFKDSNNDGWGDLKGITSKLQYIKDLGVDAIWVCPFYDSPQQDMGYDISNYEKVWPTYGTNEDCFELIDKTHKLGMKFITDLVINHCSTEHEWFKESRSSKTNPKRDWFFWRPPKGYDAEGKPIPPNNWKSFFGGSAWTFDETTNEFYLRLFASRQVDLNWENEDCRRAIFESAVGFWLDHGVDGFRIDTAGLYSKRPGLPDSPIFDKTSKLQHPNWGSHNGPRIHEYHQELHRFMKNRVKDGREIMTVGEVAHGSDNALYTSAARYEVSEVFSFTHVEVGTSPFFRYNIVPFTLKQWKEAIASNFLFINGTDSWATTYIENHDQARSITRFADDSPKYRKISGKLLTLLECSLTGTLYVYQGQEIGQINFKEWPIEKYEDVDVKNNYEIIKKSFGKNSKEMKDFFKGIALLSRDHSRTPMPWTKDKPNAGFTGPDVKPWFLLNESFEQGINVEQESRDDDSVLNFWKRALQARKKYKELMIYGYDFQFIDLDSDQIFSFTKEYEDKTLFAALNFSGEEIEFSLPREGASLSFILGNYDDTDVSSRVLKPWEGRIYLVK
smiles,measurement,setting,value
"Nc1c2c(nc3sc4c(c13)CCCC4)CCCC2 [BN-6, 1,2,3,4,7,8,9,10-Octahydrobenzo[4,5]thieno[2,3-b]quinolin-11-amine]",Differential count (%) Eosinophils,[1],15%
same,Differential count (%) Lymphocytes,[1],75%
same,Differential count (%) Monocytes,[1],10%
same,Total count,[1],10.5
same,Yeast α-glucosidase enzyme inhibitory activity (in words),[2],moderate inhibitory activity
same,Alpha amylase inhibitory activity (in words),[3],mild inhibition
same,Maltose released,[3],2.548 mg/mL
same,inhibition at 10000 µg/mL (stock),[3],26.2%
"Nc1c2c(nc3sc4c(c13)CCC4)CCC2 [BN-13, 1,2,3,6,7,8-hexahydrocyclopenta [b]cyclopenta[4,5] thieno[3,2-e]pyridin-9-amine]",Differential count (%) Eosinophils,[1],20%
same,Differential count (%) Lymphocytes,[1],74%
same,Differential count (%) Monocytes,[1],16.5%
same,Total count,[1],8
same,Yeast α-glucosidase enzyme inhibitory activity (in words),[2],moderate inhibitory activity
same,Alpha amylase inhibitory activity (in words),[3],strong inhibitory activity
same,Maltose released,[3],1.278 mg/mL
"Nc1c2c(nc3sc4c(c13)CCC4)CCCC2 [BN-14, 2,3,6,7,8,9-Hexahydro-1H-cyclopenta[4,5]thieno[2,3-b]quinolin-10-amine]",Differential count (%) Eosinophils,[1],15%
same,Differential count (%) Lymphocytes,[1],80%
same,Differential count (%) Monocytes,[1],13.5%
same,Total count,[1],13.5
same,Yeast α-glucosidase enzyme inhibitory activity (in words),[2],strong significant inhibitory activity
same,inhibition at 39.063 µg/mL,"[2]; yeast α-glucosidase, 0.039063 mg/ml, read-out: % Inhibition (Mean ± S.E)",19.6%
same,inhibition at 78.125 µg/mL,"[2]; yeast α-glucosidase, 0.078125 mg/ml, read-out: % Inhibition (Mean ± S.E)",25.84 ± 0.13%
same,inhibition at 156.25 µg/mL,"[2]; yeast α-glucosidase, 0.15625 mg/ml, read-out: % Inhibition (Mean ± S.E)",33.31 ± 0.04%
same,inhibition at 312.5 µg/mL,"[2]; yeast α-glucosidase, 0.3125 mg/ml, read-out: % Inhibition (Mean ± S.E)",42.8 ± 1.38%
same,inhibition at 625 µg/mL,"[2]; yeast α-glucosidase, 0.625 mg/ml, read-out: % Inhibition (Mean ± S.E)",50.3 ± 3.39%
same,inhibition at 1250 µg/mL,"[2]; yeast α-glucosidase, 1.25 mg/ml, read-out: % Inhibition (Mean ± S.E)",63.8 ± 1.71%
same,inhibition at 2500 µg/mL,"[2]; yeast α-glucosidase, 2.5 mg/ml, read-out: % Inhibition (Mean ± S.E)",67.8 ± 1.18%
same,inhibition at 5000 µg/mL,"[2]; yeast α-glucosidase, 5 mg/ml, read-out: % Inhibition (Mean ± S.E)",72.2 ± 1.87%
same,Maltose released,[3],2.210 mg/mL
same,inhibition at 10000 µg/mL (stock),[3],-3.06%
